# What was measured:
# [1] = biological target: Serine/threonine-protein kinase PLK1 (Homo sapiens) (UniProt P53350); assay: Binding affinity to wild-type human partial length PLK1 (A33 to F325 residues) expressed in mammalian expression system assessed as residual binding level at 1 uM by Kinomescan method relative to control
# [2] = biological target: Serine/threonine-protein kinase 16 (Homo sapiens) (UniProt O75716); assay: Binding affinity to wild-type human partial length STK16 (G11 to I305 residues) expressed in bacterial expression system assessed as residual binding level at 1 uM by Kinomescan method relative to control
# [3] = biological target: Casein kinase II subunit alpha' (Homo sapiens) (UniProt P19784); assay: Binding affinity to wild-type human full length CSNK2A2 (M1 to R350 residues) expressed in mammalian expression system assessed as residual binding level at 1 uM by Kinomescan method relative to control
# [4] = biological target: Mitogen-activated protein kinase 9 (Homo sapiens) (UniProt P45984); assay: Binding affinity to wild-type human full length JNK2 (M1 to Q382 residues) expressed in mammalian expression system assessed as residual binding level at 1 uM by Kinomescan method relative to control
# [5] = biological target: Serine/threonine-protein kinase NLK (Homo sapiens) (UniProt Q9UBE8); assay: Binding affinity to wild-type human full length NLK (M13 to E527 residues) expressed in bacterial expression system assessed as residual binding level at 1 uM by Kinomescan method relative to control
# [6] = biological target: Serine/threonine-protein kinase PAK 4 (Homo sapiens) (UniProt O96013); assay: Binding affinity to wild-type human partial length PAK4 (Q144 to R438 residues) expressed in bacterial expression system assessed as residual binding level at 1 uM by Kinomescan method relative to control
# [7] = tested on: Tyrosine-protein kinase ABL1 (Homo sapiens), P00519 [E255K]; assay: Binding affinity to human phosphorylated ABL1 E255K mutant (S229 to K512 residues) expressed in mammalian expression system assessed as residual binding level at 1 uM by Kinomescan method relative to control
# [8] = biological target: Serine/threonine-protein kinase 36 (Homo sapiens) (UniProt Q9NRP7); assay: Binding affinity to wild-type human partial length STK36 (M1 to T271 residues) expressed in bacterial expression system assessed as residual binding level at 1 uM by Kinomescan method relative to control
# [9] = biological target: Mitogen-activated protein kinase kinase kinase kinase 1 (Homo sapiens) (UniProt Q92918); assay: Binding affinity to wild-type human full length HPK1 (M1 to R799 residues) expressed in bacterial expression system assessed as residual binding level at 1 uM by Kinomescan method relative to control
# [10] = biological target: Tyrosine-protein kinase ITK/TSK (Homo sapiens) (UniProt Q08881); assay: Binding affinity to wild-type human partial length ITK (R335 to L620 residues) expressed in bacterial expression system assessed as residual binding level at 1 uM by Kinomescan method relative to control
# [11] = biological target: Calcium/calmodulin-dependent protein kinase type II subunit alpha (Homo sapiens) (UniProt Q9UQM7); assay: Binding affinity to wild-type human partial length CAMK2A (M1 to K328 residues) expressed in bacterial expression system assessed as residual binding level at 1 uM by Kinomescan method relative to control
# [12] = tested on: Tyrosine-protein kinase ABL1 (Homo sapiens), P00519 [F317I]; assay: Binding affinity to human phosphorylated ABL1 F317I mutant (S229 to K512 residues) expressed in mammalian expression system assessed as residual binding level at 1 uM by Kinomescan method relative to control
# [13] = biological target: Mitogen-activated protein kinase kinase kinase 9 (Homo sapiens) (UniProt P80192); assay: Binding affinity to wild-type human partial length MLK1 (V88 to W426 residues) expressed in bacterial expression system assessed as residual binding level at 1 uM by Kinomescan method relative to control
# [14] = biological target: Tyrosine-protein kinase Fyn (Homo sapiens) (UniProt P06241); assay: Binding affinity to wild-type human partial length FYN (T243 to L534 residues) expressed in bacterial expression system assessed as residual binding level at 1 uM by Kinomescan method relative to control
# [15] = biological target: Casein kinase II subunit alpha (Homo sapiens) (UniProt P68400); assay: Binding affinity to wild-type human full length CSNK2A1 (M1 to Q391 residues) expressed in mammalian expression system assessed as residual binding level at 1 uM by Kinomescan method relative to control
# [16] = biological target: Serine/threonine-protein kinase PAK 1 (Homo sapiens) (UniProt Q13153); assay: Binding affinity to wild-type human partial length PAK1 (S149 to H545 residues) expressed in bacterial expression system assessed as residual binding level at 1 uM by Kinomescan method relative to control
# [17] = biological target: Myosin-IIIa (Homo sapiens) (UniProt Q8NEV4); assay: Binding affinity to wild-type human partial length MYO3A (M1 to K338 residues) expressed in bacterial expression system assessed as residual binding level at 1 uM by Kinomescan method relative to control
# [18] = biological target: Serine/threonine-protein kinase LATS1 (Homo sapiens) (UniProt O95835); assay: Binding affinity to wild-type human partial length LATS1 (Q678 to V1130 residues) expressed in bacterial expression system assessed as residual binding level at 1 uM by Kinomescan method relative to control
# [19] = biological target: Dual specificity tyrosine-phosphorylation-regulated kinase 1A (Homo sapiens) (UniProt Q13627); assay: Binding affinity to wild-type human partial length DYRK1A (H129 to S509 residues) expressed in mammalian expression system assessed as residual binding level at 1 uM by Kinomescan method relative to control
# [20] = biological target: Serine/threonine-protein kinase PLK2 (Homo sapiens) (UniProt Q9NYY3); assay: Binding affinity to wild-type human partial length PLK2 (H58 to F354 residues) expressed in mammalian expression system assessed as residual binding level at 1 uM by Kinomescan method relative to control
# [21] = biological target: Serine/threonine-protein kinase tousled-like 2 (Homo sapiens) (UniProt Q86UE8); assay: Binding affinity to wild-type human partial length TLK2 (E424 to N749 residues) expressed in bacterial expression system assessed as residual binding level at 1 uM by Kinomescan method relative to control
# [22] = biological target: Cyclin-dependent kinase 8 (Homo sapiens) (UniProt P49336); assay: Binding affinity to wild-type human partial length CDK8 (M1 to T360 residues) expressed in bacterial expression system assessed as residual binding level at 1 uM by Kinomescan method relative to control
# [23] = biological target: Ephrin type-A receptor 3 (Homo sapiens) (UniProt P29320); assay: Binding affinity to wild-type human partial length EPHA3 (D604 to K889 residues) expressed in bacterial expression system assessed as residual binding level at 1 uM by Kinomescan method relative to control
# [24] = biological target: Ribosomal protein S6 kinase alpha-3 (Homo sapiens) (UniProt P51812); assay: Binding affinity to wild-type human partial length N-terminal RSK2 kinase domain 1 (M1 to D394 residues) expressed in mammalian expression system assessed as residual binding level at 1 uM by Kinomescan method relative to control
smiles,measurement,setting,value
CC(C)Nc1sc(C(=O)c2ccc(Cl)s2)c(N)c1C#N,Activity,[1],100%
same,Activity,[2],85%
same,Activity,[3],100%
same,Activity,[4],100%
same,Activity,[5],79%
same,Activity,[6],88%
same,Activity,[7],100%
same,Activity,[8],88%
same,Activity,[9],100%
same,Activity,[10],93%
same,Activity,[11],90%
same,Activity,[12],100%
same,Activity,[13],98%
same,Activity,[14],91%
same,Activity,[15],100%
same,Activity,[16],83%
same,Activity,[17],75%
same,Activity,[18],98%
same,Activity,[19],100%
same,Activity,[20],67%
same,Activity,[21],100%
same,Activity,[22],84%
same,Activity,[23],72%
same,Activity,[24],99%
